In ChEMBL document CHEMBL1250534, “Gentisides C-K: nine new neuritogenic compounds from the traditional Chinese medicine Gentiana rigescens Franch” (2010):
Activity calls are given as the source filed them. No cut-off for these calls is given here.

How the values were obtained:
PC-12 [1] = assay: Neuritogenic activity in rat PC12 cells assessed as induction of neurite outgrowth at 1 uM after 48 hrs; format: functional
PC-12 [2] = assay: Neuritogenic activity in rat PC12 cells assessed as induction of neurite outgrowth at 0.03 uM after 48 hrs; format: functional, cell-based
PC-12 [3] = assay: Cytotoxicity against rat PC12 cells at 1 uM; format: functional, cell-based
PC-12 [4] = assay: Neuritogenic activity in rat PC12 cells assessed as induction of neurite outgrowth at 1 to 30 uM after 48 hrs; format: functional
PC-12 [5] = assay: Neuritogenic activity in rat PC12 cells assessed as induction of multipolar neurite outgrowth at 1 uM after 48 hrs; format: functional, cell-based
PC-12 [6] = assay: Neuritogenic activity in rat PC12 cells assessed as induction of bipolar neurite outgrowth at 1 uM after 48 hrs; format: functional, cell-based
PC-12 [7] = assay: Neuritogenic activity in rat PC12 cells assessed as induction of neurite outgrowth after 48 hrs; format: functional, cell-based
PC-12 [8] = assay: Neuritogenic activity in rat PC12 cells assessed as induction of neurite outgrowth at 30 uM after 48 hrs; format: functional

| SMILES | Activity (PC-12 [4]) | also measured |
| --- | --- | --- |
| CC[C@H](C)CCCCCCCCCCCCCOC(=O)c1cccc(O)c1O [GENTISIDE C] | 67% | Activity (PC-12 [1]): 91%; Activity (PC-12 [2]): Active; Activity (PC-12 [3]): inactive; Activity (PC-12 [5]): Active; Activity (PC-12 [6]): Active; Activity (PC-12 [7]): Dose-dependent effect |
| CC(C)CCCCCCCCCCCCCCCOC(=O)c1cccc(O)c1O [GENTISIDE D] | 67% |  |
| CCCCCCCCCCCCCCCCCCOC(=O)c1cccc(O)c1O [GENTISIDE E] | 67% |  |
| CC[C@H](C)CCCCCCCCCCCCCCCOC(=O)c1cccc(O)c1O [GENTISIDE F] | 67% |  |
| CC[C@H](C)CCCCCCCCCCCCCCCCOC(=O)c1cccc(O)c1O [GENTISIDE G] | 67% |  |
| CC[C@H](C)CCCCCCCCCCCCCCCCCOC(=O)c1cccc(O)c1O [GENTISIDE H] | 67% |  |
| CCCCCCCCCCCCCCCCCCCCCOC(=O)c1cccc(O)c1O [GENTISIDE I] | 67% |  |
| CCCCCCCCCCCCCCCCCCCCCCOC(=O)c1cccc(O)c1O [GENTISIDE J] | 67% |  |
| CCCCCCCCCCCCCCCCCCCCCCCCOC(=O)c1cccc(O)c1O [GENTISIDE K] |  | Activity (PC-12 [8]): 48% |
